Test results from patent US5872207A, “N-terminal-marked peptides immobilized on glass beads and method of preparation and method of use thereof” (Sanofi Pharmaceuticals, Inc., priority 1995, dated 1999).
Ends that are not written are not given here. * marks the point of attachment. Hcp = 3-(7-hydroxy-4-coumarinyl)propionyl, N-terminal fluorescent marker, O=C(CCc1cc(=O)oc2cc(O)ccc12)*; silane glass bead = not defined here; Ahx = NCCCCCC(=O)O

What was measured:
[1] = test system: recombinant truncated collagenase; test: Bioassay: cleavage of immobilized peptide by recombinant truncated collagenase, fluorescence of supernatant; assay type: biochemical; conditions: for Mean Fluorescence Value ± Deviation: collagenase 10 nM, immobilized peptide 7.5 mg/mL, pH 7.5, 30-60 minutes, excitation 355 nm, emission 460 nm, mean of two measurements
Excerpt: In a second process aspect the invention is a biochemical assay method which comprises reacting in aqueous medium a protease and a substrate peptide or peptide having an amino acid-like moiety in place of an amino acid moiety thereof immobilized on glass beads by a C-terminal linker-anchor and marked by an N-terminal fluorescent marker, separating the resulting glass beads from the supernatant liquid, measuring the fluorescence of the supernatant liquid, and determining from the measured fluorescence the extent of cleavage of the substrate by the protease. By an additional step the site of cleavage of the substrate by the protease can be determined by sequential amino acid analysis.
The protease used was recombinant truncated collagenase of molecular weight 19,000, which was stored at 4° C. as a 10 μM stock aqueous solution and diluted to 30 nM just prior to carrying out the assay with aqueous buffer solution containing tromethamine (TRIS, 50 mM), sodium chloride solution (0.2M), calcium chloride (10 mM), and octoxynol-9 to 10 (Triton X-100, 0.1% v/v), whose pH was adjusted to 7.5 with aqueous sodium hydroxide solution and which was filtered and stored at 4° C. A 2- to 3-mg sample of the immobilized peptide was weighed into a 1.5-mL polypropylene microfuge tube. Sufficient buffer solution was added with vortexing to wet the immobilized peptide and make the concentration thereof 7.5 mg/mL. Sufficient collagenase solution was added to make the concentration thereof 10 nM, the tube was vortexed mechanically for 30-60 minutes, and the reaction was stopped by centrifuging. Part of the supernatant solution (200 μL) was transferred to a well of a 96-well plate. Fluorescence was measured at an excitation wavelength of 355 nm and an emission wavelength of 460 nm. The following mean fluorescence values from two measurements were obtained from the immobilized peptides of Formulas IIIa-r.

[2] = test system: mouse monoclonal antibody 3E7; conditions: Fodor et al., Science 251, 767-773 (1991); checkerboard on glass plate, epifluorescence microscope; cited from earlier work
[3] = molecular target: monoclonal antibody against β-endorphin; conditions: Lam et al., Nature 354, 82-84 (1991); cited from earlier work

Row | Mean Fluorescence Value ± Deviation [1] | Substance | further results
1 | 2042.5 ± 13 | IIIa (Hcp-GPLAMF; not fully specified (C-terminus); also: C-terminus linked via NH(CH2)3Si(OR)2O anchor to glass bead) | 
2 | 3824.5 ± 9 | IIIb (Hcp-GPLAMF; not fully specified (C-terminus); also: C-terminus linked via NH(CH2)3Si(OR)2O anchor to glass bead) | 
3 | 5733.5 ± 132 | IIIc (Hcp-GPLAMF; not fully specified (C-terminus); also: C-terminus linked via NH(CH2)3Si(OR)2O anchor to glass bead) | 
4 | 6157.0 ± 72 | IIId (Hcp-GPLAMF; not fully specified (C-terminus); also: C-terminus linked via NH(CH2)3Si(OR)2O anchor to glass bead) | 
5 | 5838.5 ± 170 | IIIe (Hcp-GPLAMF; not fully specified (C-terminus); also: C-terminus linked via NH(CH2)3Si(OR)2O anchor to glass bead) | 
6 | 7559.5 ± 2551 | IIIf (Hcp-GPLAMF; not fully specified (C-terminus); also: C-terminus linked via NH(CH2)3Si(OR)2O anchor to glass bead) | 
7 | 5374.5 ± 53 | IIIg (Hcp-GPLAMF; not fully specified (C-terminus); also: C-terminus linked via NH(CH2)3Si(OR)2O anchor to glass bead) | extent of cleavage ([1]; immobilized peptides having the linker (Acp)7 (Formulas IIIg and IIIk-r)): underwent cleavage to the greatest extent
8 | 4723.5 ± 213 | IIIh (Hcp-GPLAMF-{Ahx-Ahx-Ahx-Ahx-Ahx-Ahx-Ahx-Ahx-silane glass bead}; not fully specified; reading uncertain; also: C-terminus linked via NH(CH2)3Si(OR)2O anchor to glass bead) | 
9 | 4238.5 ± 192 | IIIi (Hcp-GPLAMF-{Ahx-Ahx-Ahx-Ahx-Ahx-Ahx-Ahx-Ahx-Ahx-silane glass bead}; not fully specified; reading uncertain; also: C-terminus linked via NH(CH2)3Si(OR)2O anchor to glass bead) | 
10 | 3662.5 ± 23 | IIIj (Hcp-GPLAMF-{Ahx-Ahx-Ahx-Ahx-Ahx-Ahx-Ahx-Ahx-Ahx-Ahx-silane glass bead}; not fully specified; reading uncertain; also: C-terminus linked via NH(CH2)3Si(OR)2O anchor to glass bead) | 
11 | 3316.0 ± 57 | IIIk (Hcp-APLALF; not fully specified (C-terminus); also: C-terminus linked via NH(CH2)3Si(OR)2O anchor to glass bead) | 
12 | 707.9 ± 266 | IIIl (Hcp-GALALF; not fully specified (C-terminus); also: C-terminus linked via NH(CH2)3Si(OR)2O anchor to glass bead) | 
13 | 4283.0 ± 150 | IIIm (Hcp-GPAALF; not fully specified (C-terminus); also: C-terminus linked via NH(CH2)3Si(OR)2O anchor to glass bead) | 
14 | 2964.5 ± 136 | IIIn (Hcp-GPLALF; not fully specified (C-terminus); also: C-terminus linked via NH(CH2)3Si(OR)2O anchor to glass bead) | 
15 | 328.1 ± 0 | IIIo (Hcp-GPLAAF; not fully specified (C-terminus); also: C-terminus linked via NH(CH2)3Si(OR)2O anchor to glass bead) | 
16 | 1913.5 ± 63 | IIIp (Hcp-GPLALA; not fully specified (C-terminus); also: C-terminus linked via NH(CH2)3Si(OR)2O anchor to glass bead) | 
17 | 379.5 ± 115 | IIIq (Hcp-AAALWAA; not fully specified (C-terminus); also: C-terminus linked via NH(CH2)3Si(OR)2O anchor to glass bead) | 
18 |  | YGGFL | binding / detection by antibody 3E7 [2]: showed fluorescence; Ki [3]: 17.5 ± 3.2 nM
19 |  | YGGFQ | Ki [3]: 15 ± 1.7 nM
